The target of series [1] is T1, human NK-3 receptor (Homo sapiens (Human), UniProt P29371). As to the kind of experiment: Aequorin functional assay with human NK-3 receptor (antagonist testing vs NKA). Format: cell-based. The note with it: CHO cells, NKA at EC80 (3 nM); read-out: Functional assay: Aequorin assay with human NK-3 receptor hNK-3-AEQ (antagonist IC50). Here is the method:
Aequorin Assay with Human NK-3 Receptor
Changes in intracellular calcium levels are a recognized indicator of G protein-coupled receptor activity. The efficacy of compounds of the invention to inhibit NKA-mediated NK-3 receptor activation was assessed by an in vitro Aequorin functional assay. Chinese Hamster Ovary recombinant cells expressing the human NK-3 receptor and a construct that encodes the photoprotein apoaequorin were used for this assay. In the presence of the cofactor coelenterazine, apoaequorin emits a measurable luminescence that is proportional to the amount of intracellular (cytoplasmic) free calcium.
The antagonist activity of compounds of the invention is measured following pre-incubation (3 minutes) of the compound (at various concentrations) with the cells, followed by addition of the reference agonist (NKA) at a final concentration equivalent to the EC80 (3 nM) and recording of emitted light (FDSS 6000 Hamamatsu) over the subsequent 90-second period. The intensity of the emitted light is integrated using the reader software. Compound antagonist activity is measured based on the concentration-dependent inhibition of the luminescence response to the addition of Neurokinin A.

The target of series [2] is T1, human NK-3 receptor. As to the kind of experiment: 3H-SB222200 binding competition assay with human NK-3 receptor. Here is the method: The affinity of compounds of the invention for the human NK-3 receptor was determined by measuring the ability of compounds of the invention to competitively and reversibly displace a well-characterized NK-3 radioligand in a concentration-dependent manner.
^3H-SB222200 Binding Competition Assay with Human NK-3 Receptor
Membranes were prepared from Chinese hamster ovary recombinant cells stably expressing the human NK-3 receptor. The membranes were incubated with 5 nM ^3H-SB222200 (ARC) in a HEPES 25 mM/NaCl 0.1M/CaCl2 1 mM/MgCl2 5 mM/BSA 0.5%/Saponin 10 μg/ml buffer at pH 7.4 and various concentrations of compounds of the invention. The amount of ^3H-SB222200 bound to the receptor was determined after filtration by the quantification of membrane associated radioactivity using the TopCount-NXT reader (Packard).

The target of series [3] is human NK-1 receptor (Homo sapiens (Human), UniProt P25103). In words: Selectivity assay: [3H] substance P binding, human NK-1 receptor. The note with it: 2 nM [3H] substance P, CHO membranes; read-out: hNK-1 (Ki). Here is the method:
Selectivity of the compounds of the invention was determined over the other human NK receptors, namely NK-1 and NK-2 receptors.
The affinity of compounds of the invention for the NK-1 receptor was evaluated in CHO recombinant cells which express the human NK-1 receptor. Membrane suspensions were prepared from these cells. The following radioligand: [^3H] substance P (PerkinElmer Cat #NET111520) was used in this assay. Binding assays were performed in a 50 mM Tris/5 mM MnCl2/150 mM NaCl/0.1% BSA at pH 7.4. Binding assays consisted of 25 μl of membrane suspension (approximately 5 μg of protein/well in a 96 well plate), 50 μl of compound or reference ligand (Substance P) at increasing concentrations (diluted in assay buffer) and 2 nM [^3H] substance P. The plate was incubated 60 min at 25° C. in a water bath and then filtered over GF/C filters (Perkin Elmer, 6005174, presoaked in 0.5% PEI for 2 h at room temperature) with a Filtration unit (Perkin Elmer). The radioactivity retained on the filters was measured by using the TopCount-NXT reader (Packard).

The target of series [4] is human NK-2 receptor (Homo sapiens (Human), UniProt P21452). As to the kind of experiment: Selectivity assay: [125I]-Neurokinin A binding, human NK-2 receptor. The note with it: 0.1 nM [125I]-Neurokinin A, CHO membranes; read-out: hNK-2 (Ki). Here is the method:
The affinity of compounds of the invention for the NK-2 receptor was evaluated in CHO recombinant cells which express the human NK-2 receptor. Membrane suspensions were prepared from these cells. […] Binding assays were performed in a 25 mM HEPES/1 mM CaCl2)/5 mM MgCl2/0.5% BSA/10 μg/ml saponin, at pH 7.4. […] The radioactivity retained on the filters was measured by using the TopCount-NXT reader (Packard).

Series [5] has as its system plasma protein. In words: Determination of plasma protein binding (equilibrium dialysis, RED). In kind it is in vitro ADME. The note with it: 4 hours at 37° C. The source says:
Determination of plasma protein binding The pharmacokinetic and pharmacodynamic properties of chemicals/drugs are largely a function of the reversible binding of chemicals to plasma or serum proteins. […] Consequently, the extent of the plasma protein binding (PPB) of a compound influences its action as well as its distribution and elimination.
The determination of plasma protein binding (PPB) of a compound is enabled by equilibrium dialysis, an accepted and standard method for reliable estimation of the non-bound drug fraction in plasma. RED (Rapid Equilibrium Dialysis) device insert is made of two side-by-side chambers separated by an O-ring-sealed vertical cylinder of dialysis membrane (MWCO ˜8,000). […] After 4 hours incubation at 37° C. under shaking, an aliquot is removed from each chamber and analyzed by a LC-MS/MS procedure enables the determination of both free and bound drug.
The “free fraction” may be calculated as 100%−% rPPB (i.e. the complementary percentage of that disclosed in Table 4, corresponding to the drug concentration that is unbound and therefore available to engage biological target and elicit pharmacological activity).
In general terms: Equilibrium dialysis compares concentrations on both sides of a semipermeable membrane.

Where [6] appears, read: Table 2, 5 nM 3H-SB222200, CHO membranes, read-out: Competitive binding assay with human NK-3 receptor hNK-3 (Ki).
Setting [7] is: Table 3 (selectivity table), read-out: hNK-3 (Ki).

Where two headings read alike, the source gives them in different places. A value given as a limit tells only on which side of the number the result lay.

T1 sequence (P29371 whole entry): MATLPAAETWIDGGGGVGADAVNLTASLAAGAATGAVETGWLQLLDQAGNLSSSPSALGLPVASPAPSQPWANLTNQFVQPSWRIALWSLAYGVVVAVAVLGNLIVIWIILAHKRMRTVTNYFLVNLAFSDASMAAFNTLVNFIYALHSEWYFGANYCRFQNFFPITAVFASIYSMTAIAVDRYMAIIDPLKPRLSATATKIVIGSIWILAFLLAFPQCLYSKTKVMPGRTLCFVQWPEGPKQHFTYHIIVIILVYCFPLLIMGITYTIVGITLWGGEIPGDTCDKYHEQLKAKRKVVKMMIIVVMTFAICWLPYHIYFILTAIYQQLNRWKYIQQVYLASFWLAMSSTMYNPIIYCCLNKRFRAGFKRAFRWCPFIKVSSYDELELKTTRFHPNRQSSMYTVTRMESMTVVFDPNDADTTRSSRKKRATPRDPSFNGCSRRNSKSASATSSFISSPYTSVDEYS
human NK-1 receptor, sequence (P25103 whole entry): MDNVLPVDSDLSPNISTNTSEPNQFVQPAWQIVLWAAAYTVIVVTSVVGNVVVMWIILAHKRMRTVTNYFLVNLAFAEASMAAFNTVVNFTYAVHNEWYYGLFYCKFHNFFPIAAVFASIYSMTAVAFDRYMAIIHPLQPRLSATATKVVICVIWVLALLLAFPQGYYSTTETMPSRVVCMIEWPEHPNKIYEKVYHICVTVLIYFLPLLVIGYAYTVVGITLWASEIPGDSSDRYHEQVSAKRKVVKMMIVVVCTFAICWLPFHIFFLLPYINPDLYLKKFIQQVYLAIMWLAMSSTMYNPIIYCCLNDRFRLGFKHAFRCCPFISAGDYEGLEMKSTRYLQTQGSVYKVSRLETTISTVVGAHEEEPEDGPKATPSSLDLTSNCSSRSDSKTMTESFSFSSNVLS
human NK-2 receptor, sequence (P21452 whole entry): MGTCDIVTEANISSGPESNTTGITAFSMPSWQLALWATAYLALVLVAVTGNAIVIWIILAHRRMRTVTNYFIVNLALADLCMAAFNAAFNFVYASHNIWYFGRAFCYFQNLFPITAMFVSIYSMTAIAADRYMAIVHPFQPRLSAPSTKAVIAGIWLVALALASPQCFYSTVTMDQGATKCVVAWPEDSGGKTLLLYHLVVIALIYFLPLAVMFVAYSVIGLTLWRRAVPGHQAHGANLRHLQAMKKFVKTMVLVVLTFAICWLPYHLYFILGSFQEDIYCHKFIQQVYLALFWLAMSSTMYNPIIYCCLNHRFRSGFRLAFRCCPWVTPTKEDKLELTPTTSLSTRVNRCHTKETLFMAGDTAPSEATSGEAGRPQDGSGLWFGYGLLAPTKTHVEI

Consider `Cc1nsc(-c2nnc3n2CCN(C(=O)c2ccc(C(F)(F)F)cc2)[C@@H]3C)n1` [Compound 21, (R)-(8-methyl-3-(3-methyl-1,2,4-thiadiazol-5-yl)-5,6-dihydro-[1,2,4]triazolo[4,3-a]pyrazin-7(8H)-yl)(4-(trifluoromethyl)phenyl)methanone], for which the IC50 in series [1] was 150 nM. The Ki in series [2] (setting [6]) is 63 nM; in series [2] (setting [7]), 63 nM; in series [3] it was above 30000 nM; in series [4], above 30000 nM. Moreover, the “Exposure (% rPPB), bound drug fraction to plasma protein” value (shortened to “Exposure (% rPPB), bound drug fraction”) in series [5] was determined as 38%.
Consider `Cc1nsc(-c2nnc3n2CCN(C(=O)c2cc(F)c(F)c(F)c2F)C3C)n1` (racemic) [Compound 31, (8-methyl-3-(3-methyl-1,2,4-thiadiazol-5-yl)-5,6-dihydro-[1,2,4]triazolo[4,3-a]pyrazin-7(8H)-yl)(2,3,4,5-tetrafluorophenyl)methanone], for which, in series [1], the IC50 is 64 nM. Also, the Ki in series [2] (setting [6]) is 70 nM; in series [2] (setting [7]) it was 70 nM; in series [3], above 30000 nM; in series [4] it was above 30000 nM. For the same molecule, in series [5], the “Exposure (% rPPB), bound drug fraction” value turned out to be 31%.
`Cc1nsc(-c2nnc3n2CCN(C(=O)c2ccc(Cl)c(Cl)c2)C3C)n1` (racemic) [Compound 38, (3,4-dichlorophenyl)(8-methyl-3-(3-methyl-1,2,4-thiadiazol-5-yl)-5,6-dihydro-[1,2,4]triazolo[4,3-a]pyrazin-7(8H)-yl)methanone]: in series [1], the IC50 amounted to 34 nM. The Ki was found to be 26 nM in series [2] (setting [6]), 26 nM in series [2] (setting [7]), 21000 nM in series [3] and 28000 nM in series [4]. For the same molecule, in series [5], the “Exposure (% rPPB), bound drug fraction” value turned out to be 76%.
On to `Cc1nsc(-c2nnc3n2CCN(C(=O)c2ccc(F)cc2)[C@@H]3CCO)n1` [Compound 11, (R)-(4-fluorophenyl)(8-(2-hydroxyethyl)-3-(3-methyl-1,2,4-thiadiazol-5-yl)-5,6-dihydro-[1,2,4]triazolo[4,3-a]pyrazin-7(8H)-yl)methanone], for which the IC50 in series [1] amounted to 73 nM. The Ki in series [2] (setting [6]) is 32 nM; in series [2] (setting [7]), 32 nM; in series [3], 22000 nM; in series [4], above 30000 nM.
As to `Cc1noc(-c2nnc3n2CCN(C(=O)c2ccc(F)cc2)[C@@H]3C)n1` [Compound 28, (R)-(4-fluorophenyl)(8-methyl-3-(3-methyl-1,2,4-oxadiazol-5-yl)-5,6-dihydro-[1,2,4]triazolo[4,3-a]pyrazin-7(8H)-yl)methanone], the IC50 in series [1] came out at 160 nM. In addition, the Ki was 110 nM in series [2] (setting [6]), 110 nM in series [2] (setting [7]), above 30000 nM in series [3] and above 30000 nM in series [4]. For the same molecule, the “Exposure (% rPPB), bound drug fraction” value in series [5] was 12%.
On to `Cc1nsc(-c2nnc3n2CCN(C(=O)c2ccc(C#N)cc2)[C@@H]3C)n1` [Compound 29, (R)-4-(8-methyl-3-(3-methyl-1,2,4-thiadiazol-5-yl)-5,6,7,8-tetrahydro-[1,2,4]triazolo[4,3-a]pyrazine-7-carbonyl)benzonitrile], for which the IC50 in series [1] came out at 170 nM. In addition, the Ki in series [2] (setting [6]) was 150 nM; in series [2] (setting [7]) it was 150 nM; in series [3], above 30000 nM; in series [4], above 30000 nM. For the same molecule, in series [5], the “Exposure (% rPPB), bound drug fraction” value is on record as 10%.
`CC(F)c1noc(-c2nnc3n2CCN(C(=O)c2ccc(F)cc2)[C@@H]3C)n1` (single isomer, unassigned) [Compound 45-1]: the IC50 in series [1] came out at 285 nM. For the same molecule, the Ki was 100 nM in series [2] (setting [6]), 100 nM in series [2] (setting [7]), above 30000 nM in series [3] and above 30000 nM in series [4]. For the same molecule, the “Exposure (% rPPB), bound drug fraction” value in series [5] is 27%.
For the molecule `C[C@@H]1c2nnc(-c3nc(CC(F)(F)F)no3)n2CCN1C(=O)c1ccc(F)cc1` [Compound 44, (R)-(4-fluorophenyl)(8-methyl-3-(3-(2,2,2-trifluoroethyl)-1,2,4-oxadiazol-5-yl)-5,6-dihydro-[1,2,4]triazolo[4,3-a]pyrazin-7(8H)-yl)methanone], the IC50 in series [1] was 204 nM. Also, the inhibitory constant (Ki) in series [2] (setting [6]) is 45 nM; in series [2] (setting [7]), 45 nM; in series [3], above 30000 nM; in series [4], above 30000 nM. For the same molecule, the “Exposure (% rPPB), bound drug fraction” value in series [5] was 31%.
As to `CCc1noc(-c2nnc3n2CCN(C(=O)c2ccc(F)cc2)C3C)n1` (racemic) [Compound 40, (3-(3-ethyl-1,2,4-oxadiazol-5-yl)-8-methyl-5,6-dihydro-[1,2,4]triazolo[4,3-a]pyrazin-7(8H)-yl)(4-fluorophenyl)methanone], the IC50 in series [1] was 130 nM. Besides, the Ki in series [2] (setting [6]) is 83 nM; in series [2] (setting [7]) it was 83 nM; in series [3], above 30000 nM; in series [4] it was above 30000 nM. Further, the “Exposure (% rPPB), bound drug fraction” value in series [5] is 24%.
Turning to `Cc1nsc(-c2nnc3n2CCN(C(=O)c2ccc(Cl)cc2)C3C)n1` (racemic) [Compound 37, (4-chlorophenyl)(8-methyl-3-(3-methyl-1,2,4-thiadiazol-5-yl)-5,6-dihydro-[1,2,4]triazolo[4,3-a]pyrazin-7(8H)-yl)methanone], the IC50 in series [1] turned out to be 52 nM. Also, the Ki in series [2] (setting [6]) was 41 nM; in series [2] (setting [7]), 41 nM; in series [3], 32000 nM; in series [4], above 30000 nM.
As to `Cc1nsc(-c2nnc3n2CCN(C(=O)c2ccc(Cl)cc2)[C@@H]3C)n1` [Compound 3, (R)-(4-chlorophenyl)(8-methyl-3-(3-methyl-1,2,4-thiadiazol-5-yl)-5,6-dihydro-[1,2,4]triazolo[4,3-a]pyrazin-7(8H)-yl)methanone], in series [1], the IC50 worked out at 32 nM. Besides, the Ki in series [2] (setting [6]) was 19 nM; in series [2] (setting [7]) it was 19 nM; in series [3], above 30000 nM; in series [4], above 30000 nM.
Take `CCC1c2nnc(-c3nc(C)ns3)n2CCN1C(=O)c1ccc(F)cc1` (racemic) [Compound 23, (8-ethyl-3-(3-methyl-1,2,4-thiadiazol-5-yl)-5,6-dihydro-[1,2,4]triazolo[4,3-a]pyrazin-7(8H)-yl)(4-fluorophenyl)methanone]: in series [5], the “Exposure (% rPPB), bound drug fraction” value is on record as 34%.
On the same count and under the same terms, next, `COc1cccc(C(=O)N2CCn3c(-c4nc(C)ns4)nnc3[C@H]2C)c1` [Compound 27, (R)-(3-methoxyphenyl)(8-methyl-3-(3-methyl-1,2,4-thiadiazol-5-yl)-5,6-dihydro-[1,2,4]triazolo[4,3-a]pyrazin-7(8H)-yl)methanone]: 24%.

For orientation: IC50 means the midpoint of a concentration-inhibition curve. For orientation: Ki means the dissociation constant of the complex between target and ligand, obtained from inhibition or displacement.
